Paper PMC4957904, “A novel validated assay to support the discovery of new anti-malarial gametocytocidal agents” (Malaria Journal, 2016)
“Also recorded” adds a separate entry of the source.

Key:
[1] = cytotoxicity, short-term resazurin-based reductase assay; cited from earlier work
[2] = tested on: 3D7A P. falciparum mature gametocytes; set-up: method as in PMID 22514702; conditions: ATP bioluminescence assay, read-out: P.f. gametocytes IC50; cited from earlier work
[3] = tested on: late-stage (stage V) Plasmodium falciparum gametocytes; experiment: Cidal vs static activity assay by qPCR of late-stage gametocyte-specific mRNA (Pf77, ROM3, Pfg377); type: cell-based; conditions: for cidal vs static effect against late-stage gametocytes (mRNA profile T∞ vs T48) / increase in Ct values, constant drug pressure (T∞) / decrease in mRNA levels (fold change), constant drug pressure (T∞) / increase in Ct values after drug removal (T48): Pf77 coding gene; for cidal vs static effect against late-stage gametocytes (mRNA profile T∞ vs T48): 144 h, concentrations of Table 1; for increase in Ct values, constant drug pressure (T∞) / decrease in mRNA levels (fold change), constant drug pressure (T∞): drug present for 144 h (T∞); for increase in Ct values, constant drug pressure (T∞): 20 × IC50 (EX 2 × IC50); for decrease in mRNA levels (fold change), constant drug pressure (T∞): from Ct increase; for reduction of mRNA levels after drug removal (T48): drug present only 48 h (T48), from Ct values; for increase in Ct values after drug removal (T48): drug present 48 h, then 96 h without drug (T48)
Description: The in vitro cidal or static anti-malarial activity of a compound against the later stages of gametocyte development at day 15 was assessed by measuring mRNA levels in P.falciparum over 144 h following drug treatment (Fig. 1). Drug activity assays were performed once in two independent cultures in T-75 flasks (Corning, NY, USA). Late-stage gametocytes were incubated with drug and 6 % haematocrit over 48 h. […] IC50 values were obtained from Lelievre et al.. To remove drug from the medium, parasite cultures were harvested and washed two times with 25 ml of RPMI. After drug removal, the parasites were cultured for a further 96 h with complete culture medium either without or with drug, at the same concentration as the initial incubation, to evaluate the reversibility of the compound effect. Medium was changed daily and two samples of 1000 µl of culture at 0, 48, 96, and 144 h were taken, centrifuged and immediately stored at −80 °C for further analysis. An untreated culture was used as a […].
Fig. 1 Scheme showing the cidal vs static in vitro activity assay against stage V Plasmodium falciparum gametocytes. Gametocytes were incubated for 48 h with 20 × IC50. After drug was washed out, the parasites were cultured for 96 h with complete culture medium with drug (A) or without drug (B) to evaluate the reversibility of compound effects. Two samples at t = 0, 48, 96, and 144 h were taken for RNA extraction, cDNA synthesis and qPCR amplification. Comparison of mRNA levels of treated P. falciparum cultures upon removal of the drug was used to assess the cidal vs static activity
For RNA extraction, RNeasy Plus mini kit (Qiagen, Hilden, Germany) was used according to the standard protocol supplied by the manufacturer. cDNA synthesis and SYBR green qPCR were performed in duplicate following the protocol already published by Bahamontes-Rosa et al.. Melting curve analysis was always performed at the end of each assay as a specificity control.
Threshold cycle (Ct) values from the measurement of the cDNA samples were obtained in duplicate using the 7000 and the 7500 fast system Software (Applied Biosystem) and further analysed using an excel data sheet (Microsoft Corporation). The average value was taken as the result and only duplicate Ct values within ±1 Ct difference were accepted. Ct values were used to quantify the relative amount of target PCR product present in each reaction; values are inversely proportional to the amount of template in the sample.
Gene expression during gametocytogenesis was represented with an adaptation of the method described by Livak and Schmittgen as (Ctgene−Ct18S rRNA)Ttime […](Ctgene−Ct18S rRNA)T0, considering the expression at time 0 (T0) as the basal expression and using the 18S rRNA gene as housekeeping gene. Absolute quantification (direct comparison of Ct values) was considered the most appropriate method for the drug activity assays.
Two different treatments were performed in parallel, one with constant drug pressure throughout the experiment (T∞), 144 h in total, and another in which the gametocyte cultures were exposed to the compound for only 48 h, the drug was washed out and then cultured for a further 96 h in fresh complete culture medium (T48) (see Fig. 1).

[4] = tested on: late-stage (stage V) Plasmodium falciparum gametocytes; experiment: as above; type: cell-based; conditions: Pf77 coding gene; 48 h drug treatment only; TCMDC-125114 at 100 × IC50; CQ at 2, 20 and 125 × asexual IC50
[5] = tested on: oocysts; set-up: method as in PMID 26317851; conditions: SMFA ex vivo, assayed at 2.5 µM; cited from earlier work

| Compound | TOX50 [1] [µM] | IC50 [2] [nM] | cidal vs static effect against late-stage gametocytes (mRNA profile T∞ vs T48) [3] | increase in Ct values, constant drug pressure (T∞) [3] | decrease in mRNA levels (fold change), constant drug pressure (T∞) [3] | reduction of mRNA levels after drug removal (T48) [3] | effect on Ct values at increasing concentrations, 48 h drug exposure (minimal gametocytocidal concentration) [4] | reduction in the number of oocysts [5] [%] | increase in Ct values after drug removal (T48) [3] [Ct] |
| --- | --- | --- | --- | --- | --- | --- | --- | --- | --- |
| C[C@H]1[C@@H](O)O[C@@H]2O[C@@]3(C)CC[C@H]4[C@H](C)CC[C@@H]1[C@@]24OO3 [Dihydroartemisinin, reference compound] | >50 | 3560 | static | at least 5 Ct | ≥ 100 fold | less than tenfold | – | – | – |
| CC[C@H](C)[C@H](NC(=O)[C@H]([C@@H](C)CC)N(C)C(C)=O)C(=O)N[C@H](C(=O)N[C@@H](CC(C)C)C(=O)[C@@]1(C)CO1)[C@@H](C)O [Epoxomicin, reference compound] | 0.003 | 0.5 | static | at least 5 Ct | ≥ 100 fold | less than tenfold | – | – | – |
| Cc1[nH]c2ccccc2c1C(=O)C(C)Sc1n[nH]c(-c2ccccc2Br)n1 (centres unmarked) [TCMDC-125114] | >50 | 130 | prolonged reduction in mRNA levels only when the drug was continuously present | 7 Ct | more than 100 fold | – | cidal activity | 100 | – |
| C=C(NC(=O)C(=C)NC(=O)c1csc(C2=N[C@@H]3c4csc(n4)[C@H]4NC(=O)c5csc(n5)[C@H]([C@](C)(O)[C@@H](C)O)NC(=O)[C@H]5CSC(=N5)/C(=C/C)NC(=O)[C@H]([C@@H](C)O)NC(=O)c5csc(n5)[C@]3(CC2)NC(=O)[C@H](C)NC(=O)C(=C)NC(=O)[C@H](C)NC(=O)[C@H]([C@@H](C)CC)N[C@@H]2C=Cc3c([C@H](C)O)cc(nc3[C@H]2O)C(=O)O[C@@H]4C)n1)C(N)=O [Thiostrepton, reference compound] | – | 900 | static | at least 5 Ct | ≥ 100 fold | less than tenfold | – | – | – |
| CC(C)c1ccc(NC(=S)NN=Cc2ccccn2)cc1 [TCMDC-125520] | 12.80 | 9.8 | static; also recorded: prolonged reduction in mRNA levels only when the drug was continuously present | ~5 Ct | ca. 100 fold | less than tenfold | – | – | ≤ 2 |
| Br.Cc1ccnc(Nc2nc(-c3ccccn3)cs2)c1 [TCMDC-125769] | >25 | 40 | static; also recorded: prolonged reduction in mRNA levels only when the drug was continuously present | ~5 Ct | ca. 100 fold | less than tenfold | – | – | ≤ 2 |
| CCN(CC)CCCC(C)Nc1ccnc2cc(Cl)ccc12 (centres unmarked) [Chloroquine, reference compound] | – | 23500 | did not affect mature gametocytes | – | – | – | no Ct increase | – | – |
| CCNCc1cccc(-c2ccc3ccnc(N)c3c2)c1 [TCMDC-136869] | 12.59 | 1660 | – | – | – | – | – | – | – |
| COc1cccc(NC(=O)[C@H](C(C)C)n2c(=O)[nH]c3ccccc3c2=O)c1 [TCMDC-125133] | >50 | 540 | prolonged reduction in mRNA levels only when the drug was continuously present | 7 Ct | more than 100 fold | – | – | 100 | – |
| CN(C)c1ccc2nc3ccc(=[N+](C)C)cc-3sc2c1 [Methylene blue, reference compound] | 6.52 | 490 | cidal | – | – | – | – | – | – |
| CN1CCOc2ccc(Nc3nnc(-c4cccc(-c5cccnc5)c4)o3)cc2C1 [TCMDC-134278] | 19.95 | > 5000 | – | – | – | – | – | – | – |
| CNC(=S)NN=C(C)c1ccccn1 [TCMDC-123475] | >25 | 9.8 | prolonged reduction in mRNA levels only when the drug was continuously present | 7 Ct | more than 100 fold | – | – | – | – |
